The values that follow come from PMC4226252, “Biochemical interaction of anti-HCV telaprevir with the ABC transporters P-glycoprotein and breast cancer resistance protein” (BMC Research Notes, 2013).

“And” between values parts separate entries of the source, which are not always exact repeats. Equal entries are not always repeated. Where two headings read alike, the source gives them in different places.

One series deals with OCT1. The settings on record: cited from earlier work.
In another series the test system is OATP1B. The conditions noted are these: cited from earlier work.
Series [1] concerns the target T1, P-gp (Homo sapiens, UniProt P08183). In words: biochemical.
Method: (§3) Then, they were mixed with [^3H]-labeled VCR (for P-gp) or E1S or MTX (for BCRP), and telaprevir at the indicated concentration in the reaction buffer (0.25 mol/L sucrose, 10 mmol/L HEPES-NaOH (pH 7.4), 10 mmol/L MgCl2, 10 mmol/L phosphocreatine, 100 μg/mL creatine phosphokinase, with or without 3 mmol/L adenosine triphosphate (ATP)) in a total volume of 50 μL. After 10 min of incubation at 25°C, the reaction mixture was stopped by the addition of ice-cold stop solution (0.25 mol/L sucrose, 10 mmol/L HEPES-NaOH (pH 7.4), 0.1 mol/L NaCl) and centrifuged at 18,000 × g for 10 min at 4°C. The pellets were solubilized by a liquid scintillation counter to measure their radioactivity levels. For kinetics analyses, the Michaelis–Menten equation and Lineweaver–Burk plots were applied to visualize the mechanism of transport inhibition, as v = Vmax[S]/([S] + (1 + [I]/Ki)Km), where [S] and [I] are concentrations of substrate and inhibitor respectively, and v is velocity of substrate uptake by transporter.
(§4) Figure 1 Effect of telaprevir on the intravesicular transport of vincristine sulfate (VCR) by P-gp. A. The ability to transport VCR in telaprevir-absent or -present conditions was determined by measuring the radioactivity taken up in membrane vesicles. B. Analyses of Lineweaver–Burk plots of inhibition of VCR uptake by P-gp. The VCR concentration was 100 nmol/L (A) and 50, 100, and 200 nmol/L (B), and of telaprevir was 0, 1, 10, and 100 μmol/L (A) and 20 μmol/L (B), respectively. Membrane vesicles from K562/MDR cells were mixed with each concentration of VCR, telaprevir, and 3 mmol/L of ATP in the incubation medium as described in the Methods section. VCR uptake is shown for parental K562 (white column for ATP-absent; gray column for ATP-present) and K562⁄MDR (dark-gray column for ATP-absent; black column for ATP-present) (A) and the inverse is shown for no inhibitor (open rhombus) and with telaprevir (black circle) (B). Results are means ± SD of triplicate (A) or quadruplicate (B) determinations.
The next series relates to OATP1B1. The settings on record: cited from earlier work.
In series [2] the target is T2, BCRP (Homo sapiens, UniProt Q9UNQ0).
T2 sequence (Q9UNQ0 1-655): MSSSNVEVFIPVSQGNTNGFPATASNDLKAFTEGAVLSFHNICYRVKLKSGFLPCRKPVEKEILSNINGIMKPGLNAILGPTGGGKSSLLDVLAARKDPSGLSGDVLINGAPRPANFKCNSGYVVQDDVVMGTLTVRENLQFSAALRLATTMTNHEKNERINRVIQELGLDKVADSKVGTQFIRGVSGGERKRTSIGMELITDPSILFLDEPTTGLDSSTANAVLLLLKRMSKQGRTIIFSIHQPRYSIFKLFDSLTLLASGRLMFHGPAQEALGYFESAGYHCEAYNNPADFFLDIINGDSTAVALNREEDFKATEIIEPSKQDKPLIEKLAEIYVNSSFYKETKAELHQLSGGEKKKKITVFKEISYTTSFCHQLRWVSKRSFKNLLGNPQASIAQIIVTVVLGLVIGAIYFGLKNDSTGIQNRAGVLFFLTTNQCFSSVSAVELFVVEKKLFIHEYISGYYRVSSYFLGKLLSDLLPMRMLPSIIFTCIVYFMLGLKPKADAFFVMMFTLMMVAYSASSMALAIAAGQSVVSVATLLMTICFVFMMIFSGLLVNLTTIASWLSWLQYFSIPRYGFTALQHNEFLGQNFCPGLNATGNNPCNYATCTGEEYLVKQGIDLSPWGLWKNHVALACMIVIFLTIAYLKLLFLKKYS
In words: biochemical. The settings on record: for IC50: IC50 of telaprevir on BCRP-mediated transport; for Ki: Lineweaver-Burk plot, 50 μmol/L telaprevir.
Method: as §3
(§5) A. The ability to transport E1S at telaprevir-absent or -present conditions was determined by measuring the radioactivity of [^3H]-E1S taken up in membrane vesicles. A similar experiment was done for MTX. […] E1S concentration was 50 nmol/L (A) and 50, 100, and 200 nmol/L (B), and of telaprevir was 0, 1, 10, and 100 μmol/L (A) and 50 μmol/L (B), respectively. MTX concentration was 100 nmol/L (A), and 100, 200 and 400 nmol/L (B). Membrane vesicles of K562/BCRP cells were used.

The target of series [3] is T1, P-gp.
Method: as §3, §4
For a further series, the system named is OCT2. The settings on record: cited from earlier work.
For another series, the system named is MATE1. The settings on record: cited from earlier work.
For series [4], the target named is T1, P-gp. In words: Photoaffinity labeling of P-gp with [125I]-IAAP. The format is binding. The arrangement: expressed in transfected cells; host or cells: K562/MDR cells (plasma membrane vesicles). The conditions noted are these: for P-gp band intensity (% of no-inhibitor): human, 10 min, pH 7.4. The procedure:
(§1) Photoaffinity labeling assay was done as described previously. In brief, plasma membrane fractions (45 μg protein/sample) were pre-incubated at 4°C for 5 min at the indicated concentration of telaprevir in 0.25 mol/L sucrose solution containing 10 mmol/L HEPES-NaOH (pH 7.4). Then, 5 nmol/L radioactive iodine-labeled IAAP, i.e., [^125I]-IAAP (2200 Ci/mmol), was added and the mixture incubated for an additional 10 min. Samples were kept on ice and illuminated with an ultraviolet lamp (B-100AP; UVP, Upland, CA, USA) at 365 nm for 30 min. These processes were carried out on ice. For the BCRP assay, the labeled BCRP protein was solubilized in a buffer (1% NP-40, 20 mmol/L Tris–HCl (pH 7.4), 150 mmol/L NaCl, 1 mmol/L ethylenediamine tetra-acetic acid (EDTA)) and immunoprecipitated with anti-BCRP antibody BXP-21 (Millipore, Billerica, MA, USA), then solubilized by Laemmli sodium dodecyl sulfate (SDS) buffer. For the P-gp assay, membrane fractions were solubilized directly by Laemmli SDS buffer. Samples were separated by sodium dodecyl sulfate-polyacrylamide gel electrophoresis (SDS-PAGE), and gels were dried. The binding of [^125I]-IAAP with P-gp and BCRP was quantified using a FLA7000 Bioimage Analyzer (Fuji Film, Tokyo, Japan) and Multi-Gauge software (Fuji Film).
(§2) Figure 3 Effect of telaprevir on photoaffinity labeling of P-gp and BCRP with [^125I]-IAAP. K562/MDR- or K562/BCRP-vesicles were mixed with the indicated concentrations of telaprevir for 5 min. Vesicles were pre-incubated with 5 nmol/L [^125I]-IAAP (2200 Ci/mmol) for 10 min, and then illuminated with a UV lamp (365 nm) for 30 min. IAAP-labeled protein was solubilized by Laemmli SDS buffer directly (for the P-gp assay) or after immunoprecipitation (for the BCRP assay), and subjected to SDS-PAGE. Signals were visualized and analyzed with a FLA7000 system. The black arrowheads are P-gp or BCRP. […] The binding of [^125I]-IAAP with P-gp and BCRP was calculated from standard curve analysis using a FLA7000 Bioimage Analyzer (Fuji Film, Tokyo, Japan) and Multi-Gauge software (Fuji Film).

Series [5] concerns the target T2, BCRP.
Method: as §3, §5
The target in series [6] is T2, BCRP. Description: Photoaffinity labeling of BCRP with [125I]-IAAP. The conditions noted are these: for BCRP band intensity (% of no-inhibitor): human, 10 min, pH 7.4. The arrangement: expressed in transfected cells; host or cells: K562/BCRP cells (plasma membrane vesicles). It is filed as binding. The procedure: as §1
as §2, with “Film). […] I copied these numbers as results for the inhibitors, although gels and blots are otherwise left out. / The value 0 under the 'K562 vesicle' control lane in panels A and B is left out because it belongs to no substance.” for “Film).”

Series [7] concerns the target T1, P-gp. The arrangement: expressed in transfected cells; host or cells: K562/MDR cells (plasma membrane vesicles); method as in PMID 23293300, PMID 22331658. The settings on record: cellular system; cited from earlier work.
Series [8] has as its target T2, BCRP. The arrangement: expressed in transfected cells; host or cells: K562/BCRP cells (plasma membrane vesicles); method as in PMID 23293300, PMID 22331658. The conditions noted are these: cellular system; cited from earlier work.

T1 sequence (P08183 whole entry): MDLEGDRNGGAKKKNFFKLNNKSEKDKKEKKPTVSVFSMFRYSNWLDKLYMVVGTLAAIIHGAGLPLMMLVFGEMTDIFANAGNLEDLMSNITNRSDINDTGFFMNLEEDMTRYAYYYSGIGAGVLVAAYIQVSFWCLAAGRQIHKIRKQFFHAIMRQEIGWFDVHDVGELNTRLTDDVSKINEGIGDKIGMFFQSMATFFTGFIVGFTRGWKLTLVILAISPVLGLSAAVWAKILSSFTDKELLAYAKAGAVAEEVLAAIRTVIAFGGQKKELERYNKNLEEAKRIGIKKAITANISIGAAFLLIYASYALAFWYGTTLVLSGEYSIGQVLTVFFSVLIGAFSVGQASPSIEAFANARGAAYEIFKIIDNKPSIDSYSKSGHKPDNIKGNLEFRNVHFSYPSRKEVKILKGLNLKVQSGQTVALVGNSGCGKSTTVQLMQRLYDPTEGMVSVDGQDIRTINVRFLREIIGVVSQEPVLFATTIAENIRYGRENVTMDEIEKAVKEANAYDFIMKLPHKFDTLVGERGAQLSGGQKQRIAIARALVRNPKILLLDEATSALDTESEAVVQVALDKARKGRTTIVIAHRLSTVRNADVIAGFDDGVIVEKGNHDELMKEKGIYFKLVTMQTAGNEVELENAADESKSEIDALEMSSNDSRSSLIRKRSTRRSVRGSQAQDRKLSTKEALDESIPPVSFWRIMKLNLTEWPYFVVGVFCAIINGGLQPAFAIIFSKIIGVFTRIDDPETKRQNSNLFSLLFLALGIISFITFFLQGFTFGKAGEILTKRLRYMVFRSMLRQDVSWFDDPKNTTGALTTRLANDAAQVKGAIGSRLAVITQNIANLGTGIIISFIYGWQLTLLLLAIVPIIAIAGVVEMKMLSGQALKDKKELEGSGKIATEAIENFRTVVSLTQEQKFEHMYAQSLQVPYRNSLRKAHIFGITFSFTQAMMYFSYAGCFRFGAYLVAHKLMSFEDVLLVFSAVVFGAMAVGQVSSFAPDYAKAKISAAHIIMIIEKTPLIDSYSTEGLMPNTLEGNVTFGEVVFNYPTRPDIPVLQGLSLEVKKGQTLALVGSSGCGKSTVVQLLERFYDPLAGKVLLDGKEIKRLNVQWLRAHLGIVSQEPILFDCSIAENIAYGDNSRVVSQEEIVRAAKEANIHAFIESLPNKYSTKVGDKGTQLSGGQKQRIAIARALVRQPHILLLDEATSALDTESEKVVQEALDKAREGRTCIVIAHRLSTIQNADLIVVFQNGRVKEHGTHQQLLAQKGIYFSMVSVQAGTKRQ

Turning to `CCC[C@H](NC(=O)[C@@H]1[C@H]2CCC[C@H]2CN1C(=O)[C@@H](NC(=O)[C@@H](NC(=O)c1cnccn1)C1CCCCC1)C(C)(C)C)C(=O)C(=O)NC1CC1` [telaprevir], the IC50 with OCT1 was 20.7 µM; in the series with OATP1B, 36.8 µM; on P-gp [1] (IC50 of telaprevir on P-gp-mediated transport, substrate VCR, K562/MDR vesicles), ~7 µM and 7 µM; in the series on OATP1B1, 2.2 µM; at BCRP [2] (substrate E1S, K562/BCRP vesicles), 30 µM; against BCRP [2] (substrate MTX, K562/BCRP vesicles) it was 31 µM. For the same compound, the IC50 was around 30 µM against BCRP [2] (substrate not specified); 6.4 µM in the series with OCT2; 23 µM in the series with MATE1; 16.5 µM on P-gp [4] (IC50 on [125I]-IAAP binding with P-gp, K562/MDR vesicles, 5 nmol/L [125I]-IAAP); above 80 µM against BCRP [6]. The Ki is 4.8 µM on P-gp [1]; 44 µM and 44.4 µM at BCRP [2] (BCRP-mediated E1S transport); 94.8 µM on BCRP [2] (BCRP-mediated MTX transport). Moreover, the Inhibitory mode entry on P-gp [3] and at BCRP [5] was “competitive” throughout. The Vmax at P-gp [3] (human, 10 min, 20 μmol/L, pH 7.4) amounted to 7.1 pmol/mg/10 min. In addition, the “P-gp band intensity (% of no-inhibitor)” value on P-gp [4] (2.5 μmol/L) is on record as 85 % of no-inhibitor; on P-gp [4] (5 μmol/L) it was 71 % of no-inhibitor; at P-gp [4] (10 μmol/L) it was 64 % of no-inhibitor; on P-gp [4] (20 μmol/L) it was 47 % of no-inhibitor; on P-gp [4] (40 μmol/L), 30 % of no-inhibitor. Also, the “BCRP band intensity (% of no-inhibitor)” value on BCRP [6] (5 μmol/L) is listed as 95 % of no-inhibitor; at BCRP [6] (20 μmol/L), 72 % of no-inhibitor; on BCRP [6] (80 μmol/L), 58 % of no-inhibitor.
Consider `CC(C)(C)NC(=O)N[C@H](C(=O)N1C[C@H]2[C@@H]([C@H]1C(=O)NC(CC1CCC1)C(=O)C(N)=O)C2(C)C)C(C)(C)C` (stereo partly drawn) [boceprevir], for which, on P-gp [7], the “Inhibitory effect on P-gp” value is “very low”. On BCRP [8], the IC50 was around 80 µM.

A word on the IC50: it is the concentration that inhibits the measured activity by half. The Ki is the dissociation constant of the complex between target and ligand, obtained from inhibition or displacement. Low readings indicate higher affinity, high ones lower affinity.
